Reference: patent US9173898B2, “Methods of treating giardiasis” (THE UNITED STATES OF AMERICA, as represented by the …, priority 2010, dated 2015)
≈ marks a conversion by molar mass, not a printed value. Structures can show the parent of a compound that is named as a salt. Where two headings read alike, the source gives them in different places.

Assays:
G. lamblia GS isolate = test: ATP content assay against G. lamblia GS isolate; format: cell-based, Giardia lamblia; conditions: Table 2, screen, read-out: Giardia GS IC50
Method: (§1) For the viability assay in 1536-well format, 2 μL media was dispensed per well into 1536-well white solid-bottom plates using a Multidrop Combi dispenser (Thermo Scientific). Subsequently, 23 nL/well compound solutions or DMSO controls were dispensed to the assay plates containing media via a pintool workstation (Kalypsys, San Diego). Trophozoites were chilled on ice to detach from glass tubes, and unless otherwise noted, were diluted to 250,000 trophozoites/mL with ice cold media. The trophozoite suspension was kept on ice and dispensed as 4 μL/well with the Multidrop Combi dispenser. Attachment of trophozoites to dispensing apparatus was avoided with continuous dispensing and icing of the trophozoite suspension. The plates were covered with plastic low-evaporation lids, individually sealed in Type A Bio-Bags and incubated at 37° C. for 48 hours. Following incubation, 4 μL/well of ATPLite reagent was dispensed with the Multidrop Combi dispenser. The assay plates were briefly centrifuged at 1000 RPM and luminescence signal was detected on a ViewLux plate reader (PerkinElmer) after 20 min incubation at room temperature. Signal-to-basal (S/B) ratio, Z′ factor and coefficient of variation (CV) were calculated from 32 wells with 0.38% DMSO (total signal) and 32 well with 38.3 μM Mnz (basal signal).
As a further confirmatory step, some compounds that were commercially available were purchased as powder samples and tested against the G. lamblia GS isolate using both the ATP content and enumeration assays (Table 3).

CHO cells [1] = test: CHO cell cytotoxicity assay in 1536-well format (ATP content counter-screen); format: cell-based, Chinese hamster; conditions: for CHO Efficacy: percent reduction in ATP levels compared with 38.3 mM camptothecin at maximal compound concentration; for Emax: Cricetulus griseus, CHO, 48 h, percent reduction in ATP levels compared with 38.3 µM camptothecin at maximal compound concentration, read-out: CHO Efficacy
Giardia WB = test: Giardia viability (ATP content) assay in 1536-well format; format: cell-based, Giardia lamblia; conditions: for IC50: concentration at which 50% of DMSO control ATP levels are detected, 48 hours, 1536-well; for Giardia WB Efficacy / Emax: percent reduction in ATP levels compared with 38.3 mM Mnz at maximal compound concentration; for Emax: 48 h, read-out: Giardia WB Efficacy
Method: as §1
Assay miniaturization in 1,536-well plate format was undertaken to increase throughput and facilitate screening of large compound libraries. The volume of trophozoites suspension was reduced to 6 μL/well and the ATP detection reagent was reduced to 4 μL/well in the 1536-well assay plates. […] The 100 trophozoites/well density was selected for further experiments to reduce the preparation work of Giardia cultures. Following these conditions, a DMSO test plate was used to assess the statistical parameters of the assay in the 1,536-well plate format.
Using the above established conditions in 1536-well format, each compound of the invention was tested at 5 concentration points, ranging from 61 nM-38.3 μM in a 1:5 dilution ratio (Inglese, J., D. S. Auld, A. Jadhav, R. L. Johnson, A. Simeonov, A. Yasgar, W. Zheng, and C. P. Austin. 2006. Quantitative high-throughput screening: a titration-based approach that efficiently identifies biological activities in large chemical libraries. Proc Natl Acad Sci USA 103:11473-8).

CHO cells [2] = test: CHO cell cytotoxicity assay in 1536-well format (ATP content counter-screen); format: cell-based, Chinese hamster; conditions: concentration at which 50% of DMSO control ATP levels are detected, 48 hours
Method: For the viability assay in 1536-well format, 2 μL media was dispensed per well into 1536-well white solid-bottom plates using Multidrop Combi dispenser. Subsequently, 23 nL/well compound solutions or DMSO controls were dispensed to the assay plates via a pintool workstation. The Chinese hamster ovary (CHO) cells were grown in T225 flasks to 70% confluence under a standard cell culture condition (ATCC), detached with 0.25% Trypsin/EDTA, and seeded at 250 cells/well in 4 μL media (Dulbecco's Modified Eagle Medium, 10% fetal bovine serum, 1× penicillin/streptomycin). The plates were incubated at 37° C. with 5% CO2 and 95% humidity for 48 hours. Subsequently, ATP content was measured following the addition of 4 μL/well of ATPLite reagent and a 20 min incubation on a ViewLux plate reader.
Data from the CHO cell counter-screen underwent the same initial analysis, with the exception that raw luminescence counts were normalized relative to DMSO only wells (0% activity) and 38.3 μM camptothecin treated wells (100% activity).
CHO cells, commonly used in high throughput compound screening, were selected to determine the cytotoxicity of the compounds towards a mammalian cell line.

[3] = system: Giardia lamblia GS isolate; test: Minimum Lethal Concentration (MLC) determination; format: cell-based; conditions: 3 days with compound, then 3 days regrowth without compound, tube without any live organisms
Method: Giardia lamblia GS isolate was used throughout the Minimal Lethal Concentration (MLC) experiments. Organisms were grown and maintained in TYI-S-33 medium supplemented with bile and antibiotics (Keister, 1983). Cidal activity was determined in 96-well culture plates (Corning Incorporated) followed by Giardia trophozoites regrowth in 8 ml tubes (Fisher Scientific). Dry compounds were dissolved in DMSO (Sigma) at stock concentration of 10 mM and then added to the growth media to ensure final DMSO concentration of no more than 0.5%. 100 μl of the compound solutions were placed in the wells by serial dilutions. 10 μl of Giardia trophozoites containing 10000 organisms were then added. Serial dilutions of metronidazole served as the positive control and the DMSO-containing medium served as the negative control. Plates were incubated under anaerobic conditions in sealed bags (Becton Dickinson and Company) at 37° C. for 3 days and surveyed visually under microscope to check survival, mobility and attachment of trophozoites. The plate was chilled on ice for 30 min and the entire contents of 4 wells in the growth/death transition were transferred into the 8 ml tubes containing growth media only (without the compound). After 3 days of incubation at 37° C., tubes were checked under microscope for any surviving trophozoites. MLC was attributed to the tube without any live organisms. See, e.g., Keister, D. B. 1983. Axenic culture of Giardia lamblia in TYI-S-33 medium supplemented with bile. Trans. Soc. Trop. Med. Hyg. 77:487-488.

Row | Molecule | IC50 (G. lamblia GS isolate) [µM] | CHO Efficacy (CHO cells [1]) [%] | IC50 (Giardia WB) [µM] | Giardia WB Efficacy (Giardia WB) [%] | IC50 (CHO cells [2]) [µM] | MBC [3] [µM] | IC50 (G. lamblia GS isolate; Giardia duodenalis) [µM] | Emax (CHO cells [1]) [%] | Emax (Giardia WB; Giardia) [%] | IC50 (Giardia WB; Giardia) [µM] | IC50 (CHO cells [2]; Cricetulus griseus, CHO) [µM] | MBC ([3]; Giardia duodenalis, 72 h) [µM]
1 | O=[N+]([O-])c1ccc(/C=N/O)o1 [Nifuroxime] | 1 | −50.3 | 0.46 | 97.1 | 41.1 | 1.54 (≈ 0.24 µg/mL) | – | – | – | – | – | –
2 | CC(=O)Nc1ncc([N+](=O)[O-])s1 [Nithiamide] | – | – | – | – | – | – | 0.317 | 25.9 | 94.6 | 0.58 | > 100 | 4.63 (≈ 0.867 µg/mL)
3 | COC(=O)Nc1nc2ccc(C(=O)c3cccs3)cc2[nH]1 [Nocodazole] | – | – | – | – | – | – | – | 54.4 | 86.7 | 0.183 | 0.37 | 0.15 (≈ 0.0452 µg/mL)
4 | CCCCc1ccc2[nH]c(NC(=O)OC)nc2c1 [Parbendazole] | – | – | – | – | – | – | – | 60.3 | 90.2 | 0.312 | 0.44 | –
5 | Oc1cc(O)cc(/C=C/c2ccc(O)c(O)c2)c1 [Piceatannol] | – | – | – | – | – | – | 3.56 | -16.6 | 81.3 | 3.26 | > 100 | 13.9 (≈ 3.4 µg/mL)
6 | Oc1ccc(/C=C\c2cc(O)cc(O)c2)cc1 [Resveratrol] | – | – | – | – | – | – | – | 22.2 | 80.7 | 4.94 | 39.2 | > 208
7 | CCCC(=O)OCC(OC(=O)CCC)C(OC(=O)CCC)C(Cn1c2nc(=O)[nH]c(=O)c-2nc2cc(C)c(C)cc21)OC(=O)CCC (stereo not drawn) [Riboflavin Butyrate] | – | – | – | – | – | – | 1.13 | 20.3 | 95.7 | 1.09 | > 100 | 41.7 (≈ 27.4 µg/mL)
8 | O=C(Nc1ncc([N+](=O)[O-])s1)c1cccs1 [Tenonitrozol] | – | – | – | – | – | – | – | 21.5 | 93.1 | 0.29 | > 100 | 1.54 (≈ 0.393 µg/mL)
9 | CN(C)C(=S)SSC(=S)N(C)C [Tetramethylthiur am disulfide, tetramethylthiuram disulfide] | – | – | – | – | – | – | – | 97.6 | 97.6 | 5.16 | 0.52 | –
10 | CCCOc1ccc2nc(NC(=O)OC)sc2c1 [Tioxidazole] | – | – | – | – | – | – | 0.634 | 34.9 | 90.9 | 1.46 | > 100 | 1.54 (≈ 0.41 µg/mL)
11 | CC[C@]1(O)C[C@@H]2C[N@@](CCc3c([nH]c4ccccc34)[C@@](C(=O)OC)(c3cc4c(cc3OC)N(C)[C@H]3[C@@](O)(C(=O)OC)[C@H](OC(C)=O)[C@]5(CC)C=CCN6CC[C@]43[C@@H]65)C2)C1 [Vinblastine sulfate] | – | – | – | – | – | – | – | 64.1 | 90.1 | 1.45 | 0.1 | –
12 | Amlexanox | – | 89.3 | 2.59 | 92.4 | 3.26 | >41.7 | – | – | – | – | – | –
13 | Bortezomib [Bortezomib (S,R)] | – | 36.2 | 0.07 | 92.8 | 0.01 | – | – | – | – | – | – | –
